# Experimental data: patent US20210275657A1, “NEOANTIGENS AND USES THEREOF” (BioNTech US Inc., priority 2018, published 2021)
# Where no end group is shown, it is not given here.
# Key:
# indicated HLA alleles [1] = assay: Stability of GATA3 neoORF neoepitopes with the HLA alleles (Example 9, Table 4); type: binding, human
# Experimental: (§1) Multiple peptides containing the neoepitopes in Table 4 below were expressed or loaded onto antigen presenting cells (APCs). Mass spectrometry was then performed and the affinity of the neoepitopes for the indicated HLA alleles and stability of the neoepitopes with the HLA alleles was determined.
# HLA-B08:01 [2] = molecular target: T1, HLA-B08:01 (Homo sapiens, UniProt P01889, A93T/A95T/D138N/E176V/E187T/K202T/Q94N/R180D/S35A/V36M/Y33D/Y91F); assay: Stability measurements, pMHC-I dissociation with 125I light chain (Example 20); type: binding; details: for Average half-life: average of experiments 1 and 2
# Experimental: (§2) To measure the binding stability of peptides to Class I MHC, synthetic genes encoding biotinylated MHC-I heavy and light chains are expressed in E. coli and purified from inclusion bodies using standard methods. […] These reactions were carried out in streptavidin coated microplates to bind the biotinylated MHC-I heavy chains to the surface and allow measurement of radiolabeled light chain to monitor complex formation. Dissociation was initiated by addition of higher concentrations of unlabeled light-chain and incubation at 37° C. Stability was defined as the length of time in hours it takes for half of the complexes to dissociate, as measured by scintillation counts. Duplicate measurements were performed. The average of the two measurements was taken as the stability.
# HLA-B08:01 [3] = molecular target: T1, HLA-B08:01; assay: biochemical
# indicated HLA alleles [4] = molecular target: T2, indicated HLA alleles (Homo sapiens, UniProt P04439); assay: Affinity of mutant BTK neopeptides for indicated HLA alleles; type: binding
# Experimental: (§3) Multiple peptides containing neoepitopes in the table below were either expressed or loaded onto antigen presenting cells. Mass spectrometry was then performed and the affinity of the neoepitopes for indicated HLA alleles were determined, and the stability of the neoepitopes with the HLA alleles were determined.
# indicated HLA alleles [5] = assay: as above; type: binding, human; details: BTK, C481S
# Experimental: as §3
# indicated HLA alleles [6] = molecular target: T2, indicated HLA alleles; assay: Stability of mutant BTK neopeptides with the HLA alleles; type: binding; details: BTK, C481S; HLA A03.01
# Experimental: as §3
# indicated HLA alleles [7] = assay: as above; type: binding, human; details: BTK, C481S; HLA A01.01
# Experimental: as §3
# indicated HLA alleles [8] = molecular target: indicated HLA alleles (Homo sapiens, UniProt P01889); assay: Affinity of GATA3 neoORF neoepitopes for the indicated HLA alleles (Example 9, Table 4); type: binding
# Experimental: as §1
# HLA-B07:02 [9] = molecular target: T3, HLA-B07:02 (Homo sapiens, UniProt P01889); assay: Affinity measurements, competition with radiolabeled peptide (Example 20); type: binding
# HLA-B07:02 [10] = molecular target: T3, HLA-B07:02; assay: Stability measurements, pMHC-I dissociation with 125I light chain (Example 20); type: binding; details: for Average half-life: average of experiments 1 and 2
# Experimental: as §2
# HLA-A02:01 [11] = molecular target: T4, HLA-A02:01 (Homo sapiens, UniProt P04439, D140Y/D185E/D98H/E176V/E277Q/G131W/G231S/I119V/I121R/I166T/I218V/L300P/L318F/N151K/N90K/P208A/P217A/Q86G/Q94H/R138H/R169H/T345S); assay: Detection of GATA3 neoORF peptides by mass spectrometry (Example 8); type: cell-based; details: 293T cells transduced with GATA3 neoORF lentiviral vector, expressing HLA-A02:01; peptides eluted from HLA-peptide complexes, MS/MS
# indicated HLA alleles [12] = assay: Affinity of GATA3 neoORF neoepitopes for the indicated HLA alleles (Example 9, Table 4); type: binding, human; details: Allele A02.01; read-out: Observed MHC affinity
# Experimental: as §1
# [13] = tested on: antigen specific CD8+ T cells; assay: Antigen specific CD8+ T cell induction monitored with pMHC multimers (Example 10); type: cell-based, human
# Experimental: PBMC samples from a human donor were used to perform antigen specific T cell induction. CD8^+ T cell inductions were analyzed after manufacturing T cells. Cell samples can be taken out at different time points for analysis. pMIHC multimers were used to monitor the fraction of antigen specific CD8^+ T cells in the induction cultures. […] FIG. 9A depicts an exemplary result of a T cell response assay using PBMCs from 6 different healthy donors showing the fraction of antigen specific CD8^+ T cells that responded to […] peptide analyzed by flow cytometry after stimulation or induction. […] FIG. 9B depicts an exemplary result of a T cell response assay using PBMCs from a healthy donor showing fraction of antigen specific CD8^+ T cells that responded to […] peptide analyzed by flow cytometry after stimulation or induction.
# HLA-A02:01 [14] = molecular target: T4, HLA-A02:01; assay: Stability measurements, pMHC-I dissociation with 125I light chain (Example 20); type: binding
# Experimental: as §2
# CD8+ T cells = assay: Immunogenicity on MHC I: FLT3L/mDC long term stimulation of healthy donor PBMCs, multimer readout (Example 23); details: A02:01
# HLA-B07:02 [15] = molecular target: T3, HLA-B07:02; assay: Detection of GATA3 neoORF peptides by mass spectrometry (Example 8); type: cell-based; details: 293T cells transduced with GATA3 neoORF lentiviral vector, expressing HLA-B07:02; eluted peptides, MS/MS
# [16] = ovarian carcinoma patients, poly-ICLC with NYESO-1 peptide vaccine (in addition to Montanide), phase 1 study; cited from earlier work
compound,measurement,setting,value
CC[C@H](C)[C@H](NC(=O)[C@H](CCCCN)NC(=O)[C@H](CO)NC(=O)[C@H](CCC(=O)O)NC(=O)[C@H](C)NC(=O)[C@H](CCCCN)NC(=O)[C@H](CC(C)C)NC(=O)[C@@H](N)Cc1ccccc1)C(=O)N[C@@H](CCSC)C(=O)N[C@@H](Cc1ccccc1)C(=O)O,Observed MHC stability,indicated HLA alleles [1]; Allele B08:01,0 h
same,Experiment 2 half-life,HLA-B08:01 [2],0.0 h
same,Average half-life,HLA-B08:01 [2],0.0 h
same,IC50,HLA-B08:01 [3],0.09 µM
CC[C@H](C)[C@H](N)C(=O)N[C@@H](CCSC)C(=O)N[C@@H](CCCCN)C(=O)N1CCC[C@H]1C(=O)N[C@@H](CCCCN)C(=O)N[C@@H](CCCNC(=N)N)C(=O)N[C@@H](CC(=O)O)C(=O)NCC(=O)N[C@@H](Cc1ccc(O)cc1)C(=O)N[C@@H](CCSC)C(=O)O,Observed MHC stability,indicated HLA alleles [1]; Allele B08:01,0.4 h
same,Experiment 1 half-life,HLA-B08:01 [2],0.4 h
same,Experiment 2 half-life,HLA-B08:01 [2],0.4 h
same,Average half-life,HLA-B08:01 [2],0.4 h
same,IC50,HLA-B08:01 [3],0.0402 µM
CSCC[C@H](N)C(=O)N[C@@H](C)C(=O)N[C@@H](CC(N)=O)C(=O)NCC(=O)N[C@@H](CO)C(=O)N[C@@H](CC(C)C)C(=O)N[C@@H](CC(C)C)C(=O)N[C@@H](CC(N)=O)C(=O)N[C@@H](Cc1ccc(O)cc1)C(=O)O,Kd,indicated HLA alleles [4],0.0356 µM
same,Kd,indicated HLA alleles [5]; HLA A01.01,0.439 µM
same,Kd,indicated HLA alleles [5]; HLA A11.01,0.536 µM
same,Stability (1/2 hr),indicated HLA alleles [6],0.238 h
same,Stability (1/2 hr),indicated HLA alleles [7],0.2164 h
CSCC[C@H](N)C(=O)N[C@@H](Cc1ccccc1)C(=O)N[C@@H](C)C(=O)N[C@H](C(=O)N[C@@H](CC(C)C)C(=O)N[C@@H](CCC(N)=O)C(=O)N[C@@H](CCCNC(=N)N)C(=O)N[C@@H](CO)C(=O)N[C@@H](CO)C(=O)N[C@@H](CC(C)C)C(=O)O)[C@@H](C)O,Kd,indicated HLA alleles [8],0.267 µM
same,Observed MHC stability,indicated HLA alleles [1]; Allele B07:02,0 h
same,Observed MHC stability,indicated HLA alleles [1]; Allele B08:01,0 h
same,IC50,HLA-B07:02 [9],0.35 µM
same,Experiment 2 half-life,HLA-B07:02 [10],0.0 h
same,Average half-life,HLA-B07:02 [10],0.0 h
same,Experiment 2 half-life,HLA-B08:01 [2],0.0 h
same,Average half-life,HLA-B08:01 [2],0.0 h
CSCC[C@H](NC(=O)[C@@H](N)CO)C(=O)N[C@@H](CC(C)C)C(=O)N[C@H](C(=O)NCC(=O)N1CCC[C@H]1C(=O)N1CCC[C@H]1C(=O)N[C@@H](C)C(=O)N[C@@H](CCCNC(=N)N)C(=O)N[C@H](C(=O)O)C(C)C)[C@@H](C)O,detected by mass spectrometry,HLA-A02:01 [11],detected
same,Kd,indicated HLA alleles [12],0.014 µM
same,Observed MHC stability,indicated HLA alleles [1]; Allele A02.01,21.7 h
same,fraction of antigen specific CD8+ T cells that responded to peptide,"[13]; healthy donor PBMCs, flow cytometry after stimulation or induction",increase in the fraction of antigen specific T cells
same,Experiment 1 half-life,HLA-A02:01 [14],21.7 h
same,Experiment 2 half-life,HLA-A02:01 [14],21.8 h
same,Average half-life,HLA-A02:01 [14]; average of experiments 1 and 2,21.7 h
same,Percent positive inductions,CD8+ T cells; naive CD8+ induction confirmed over two stimulations,20%
same,Number of wells with a reactive TCR,"CD8+ T cells; of 5 wells tested, healthy donor PBMCs",1
KPKRDGYMFL,detected by mass spectrometry,HLA-B07:02 [15],detected
same,Kd,indicated HLA alleles [8],0.098 µM
same,Observed MHC stability,indicated HLA alleles [1]; Allele B07:02,3.3 h
same,IC50,HLA-B07:02 [9],0.115 µM
same,Experiment 1 half-life,HLA-B07:02 [10],3.3 h
same,Experiment 2 half-life,HLA-B07:02 [10],3.3 h
same,Average half-life,HLA-B07:02 [10],3.3 h
VLPEPHLAL [VLPEPHLAL],detected by mass spectrometry,HLA-A02:01 [11],detected
same,Kd,indicated HLA alleles [12],0.016 µM
same,Observed MHC stability,indicated HLA alleles [1]; Allele A02.01,1.1 h
same,healthy donors showing an increase in the fraction of antigen specific CD8+ T cells,[13]; PBMCs from 3 different healthy donors,one of the three donors
YMANGSLLNY,Kd,indicated HLA alleles [4],0.0959 µM
same,Kd,indicated HLA alleles [5]; HLA A01.01,0.0132 µM
same,Kd,indicated HLA alleles [5]; HLA A11.01,0.974 µM
same,Stability (1/2 hr),indicated HLA alleles [6],0.2791 h
same,Stability (1/2 hr),indicated HLA alleles [7],0.8662 h
poly-ICLC,patients showing induction of CD4+ and CD8+ T cell and antibody responses to the peptide,[16],> 90%
